Measurements: publication PMC2950902 (Molecular Microbiology, 2010)

Assays:
P1 ParA [1] = molecular target: T1, P1 ParA (Escherichia coli, UniProt P07620); experiment: MANT-nucleotide fluorescence; format: binding; settings: unlabelled ADP
T1 sequence (P07620 1-398): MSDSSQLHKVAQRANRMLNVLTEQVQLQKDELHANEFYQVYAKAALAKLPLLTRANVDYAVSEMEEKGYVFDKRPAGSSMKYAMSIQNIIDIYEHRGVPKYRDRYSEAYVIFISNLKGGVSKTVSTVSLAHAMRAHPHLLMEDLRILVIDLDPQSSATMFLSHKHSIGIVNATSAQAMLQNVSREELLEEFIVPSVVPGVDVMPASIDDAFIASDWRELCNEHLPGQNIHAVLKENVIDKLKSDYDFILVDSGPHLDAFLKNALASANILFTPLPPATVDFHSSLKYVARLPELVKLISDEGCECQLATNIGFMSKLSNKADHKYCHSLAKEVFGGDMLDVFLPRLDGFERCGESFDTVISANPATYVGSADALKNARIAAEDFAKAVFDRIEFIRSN

P1 ParA [2] = molecular target: T1, P1 ParA; experiment: tryptophan fluorescence change; format: binding; settings: 1 mM nucleotide, Mg2+, 23°C

## Nc1ncnc2c1ncn2[C@@H]1O[C@H](COP(=O)(O)OP(=O)(O)O)[C@@H](O)[C@H]1O [ADP]
P1 ParA [1]
  apparent Kd: MANT-ADP bound ParA with similar affinity as ADP

## Nc1ncnc2c1ncn2[C@@H]1O[C@H](COP(=O)(O)OP(=O)(O)OP(O)(O)=S)[C@@H](O)[C@H]1O [ATPγS]
P1 ParA [2]
  tryptophan fluorescence change: ADP and ATPγS induced a small but reproducible increase in fluorescence
